Test results taken from US9622469B2, “Crosslink breakers for preservation of biological substances” (priority 2013, dated 2017).
Entries after “also recorded” stand apart in the source; their conditions may differ. Marks after values point to notes of the source that are not given here.

What was measured:
[1] = NHC-mediated reaction with α-keto aldehyde methylglyoxal (17), Method B; format: biochemical; details: isolated yield with respect to 2
Experimental: 60 mM solution of dicarbonyl substrate (45 μmol) in MeCN (0.75 ml) was added to 20 mM solution of NHC (15 μmol) in 0.15 M pH 7.4 sodium phosphate buffer (0.75 ml) and kept stirred at 37° C. At stated times, 75 μl aliquots were taken, diluted with 50% MeCN/H2O (425 μl) and analyzed by LCMS with 2,4-dihydroxyquinoline (248 μM) as an internal standard. The cleavage products were quantified by peak integration against the calibration curves.
Four diastereomers (ALT-MGO-1 through ALT-MGO-4) were obtained with a similar method to ALT-PG using 2 (100 mg, 0.37 mmol) and 40% methylglyoxal (MOO, 17) solution (0.2 ml, 1.3 mmol, 3.5 eq). Purification was performed by HPLC (9-19% MeCN over 32 min), and the lyophilization of fractions afforded the title compounds as white solids (96% combined yield). See Supplementary Material for characterization data.
Reactions involving α-keto aldehyde derivatives 16 and 17 followed an unexpected course. Treatment of these substrates with 2 led to instantaneous, high-yield production of a diastercomeric mixture of cycloadducts (19 and 20) that decompose to complex mixtures under the reaction conditions with half-lives of approximately 3 h Structures were determined based on in-depth NMR analysis (see Supplementary Material).

stored mouse blood = assay: Glucose in serum of stored mouse blood (glucose oxidase enzymatic assay); format: cell-based; details: typical storage conditions, up to 14 days
Experimental: (§1) Leuko-reduced mouse blood was stored under typical storage conditions for up to 14 days, in either OCR6043, control compound, or without any treatment. FIG. 2A illustrates an analysis of glucose in the serum from the stored blood was evaluated using a glucose oxidase enzymatic assay. […] FIG. 2B illustrates the AGE precursor levels on RBCs were measured using a dicarbonyl-specific fluorophore that was developed in-house. The time dependent increase in the AGE precursor levels was dampened in the presence of OCR6043. FIG. 2C illustrates mouse blood that was stored for 14 days, was evaluated for its immunogenicity upon transfusion, by testing for IgGs against an alloantigen on the RBCs (HOD=HEL-OVA-Duffy).

[2] = system: AGE precursor (α-dicarbonyl) on RBCs; assay: AGE precursor (α-dicarbonyl) levels on stored RBCs (dicarbonyl-specific fluorophore); format: cell-based, mouse; details: typical storage conditions, up to 14 days
Experimental: as §1

[3] = rats; cited from earlier work
[4] = system: HOD alloantigen on stored RBCs; assay: Immunogenicity of stored blood upon transfusion (anti-HOD IgG ELISA); format: in vivo, mouse; details: blood stored 14 days, transfused into B6 mice, 14 days following transfusion
Experimental: as §1
OCR6043 treatment decreases immunogenicity, and enhances post-transfusion recovery of stored mouse blood. Leukoreduced mouse blood was stored under typical storage conditions for up to 14 days in either OCR6043 or without any treatment. This mouse blood was evaluated for its immunogenicity upon transfusion by testing for IgGs against an alloantigen on the RBCs (HOD=HEL-OVA-Duffy).
As described herein, the stored blood has an HOD marker allowing facile detection after transfusion. We transfused […] of stored blood into B6 mice (not expressing the HOD antigen). […] The anti-HOD IgG response was evaluated using standard ELISA techniques described in Hendrickson et at.

mouse RBC = assay: Storage of leukoreduced mouse blood in CPDA-1 at 4° C.: hemolysis and intact RBC count; format: cell-based; details: CPDA-1 buffer; for RBC viability / intact RBCs (hemocytometer): 13 days
Experimental: FIG. 1 illustrates OCR6043-mediated prolonging of the integrity of stored RBCs. Leuko reduced mouse blood was stored under FDA-approved storage conditions (CPDA-1 buffer at 4° C.) for up to 13 days, in either OCR6043, control compound (structurally similar to OCR6043, but nonfunctional as a AGE crosslink breaker), or without any additive.
This solution was stored at 4° C. according to FDA-approved conditions for 13 days. […] The steps to collect HOD blood from mice and the addition of the FDA-approved storage buffer CPDA are described in Hendrickson et al., Transfusion of fresh murine red blood cells reverses adverse effects of older stored red blood cells, Transfusion (2011) Vol. 12, pp. 2695-2702.
We also counted the intact RBCs using a hemocytometer after 13 days of storage as also depicted in FIG. 1.

[5] = various animal studies and clinical trials; cited from earlier work
[6] = Trapping of methylglyoxal under physiological conditions (PBS); format: biochemical; details: 37° C., 24 hours, MGO at pathologically relevant concentration (4-6 μM)
Experimental: For trapping under physiological conditions (FIG. 5), 12.5 μl of 2 (40 mM stock) and 7.7 μl of MGO (6.5 mM stock) were added to PBS (4.98 ml) and kept stirred at 37° C. At stated times, 445 μl of the reaction mixture was taken, quenched with 1 M HCl (5 μl) and analyzed by LCMS after adding 50 μl of 3 mM 4-methoxybenzhydrol as an internal standard. Yield of ALT-MGO (20) was determined by peak integration (m/z=304) against a calibration curve.
Recognizing the reaction conditions employed above were non-physiological, we wanted to test if ALT-711 could efficiently trap methylglyoxal (MGO, 17) at a pathologically relevant concentration (4-6 μM). We obtained ALT-MOO adduct (20) in PBS with a 53% yield at 24 hours (FIG. 5B). […] The trapping of MGO by ALT-711 may be the mechanism for the observed effects.

Structure (SMILES): Cc1sc[n+](CC(=O)c2ccccc2)c1C.[Cl-] [Compound 2]
- % Yield of cycloadduct 20 from substrate 17 [1]: 96^b %
- Glucose levels in serum of stored blood (stored mouse blood): more effective preservation of glucose levels
- Time dependent increase in AGE precursor levels on RBCs [2]: dampened
- MGO levels and MGO-induced glucose intolerance [3]: lowered MOO levels and attenuated MOO-induced glucose intolerance
- Immunogenicity upon transfusion (IgG against HOD alloantigen) ([4]; listed as ALT-711): lower immunogenicity
- Immunogenicity upon transfusion (IgG against HOD alloantigen) ([4]; listed as OCR6043): decreased immunogenicity; also recorded: attenuated this immune response
- RBC viability / intact RBCs (hemocytometer) (mouse RBC; listed as ALT-711): higher levels of intact RBCs
- RBC viability / intact RBCs (hemocytometer) (mouse RBC; listed as OCR6043): superior cell viability
- Hemolysis of stored blood (supernatant appearance) (mouse RBC; up to 13 days, 12 mM): unhemolyzed
- Toxicity to animals and humans [5]: non-toxic
- Yield of ALT-MGO adduct (20) [6]: 53%
